According to patent publication US9283218B2, “Solid dispersion with improved solubility comprising tetrazole derivative as an active ingredient” (HANMI PHARM. CO., LTD., priority 2012, dated 2016):
Structures can show the parent of a compound that is named as a salt.

Tests used:
[1] = Solubilities of active ingredient in various solvents (excess added, shaken 2 hours, centrifuged, HPLC); type: physicochemical
Procedure: In order to find out the most suitable solvent for the solid dispersion, an excessive amount of HM30181A, as an active ingredient, was added to a solvent, shook for 2 hours, and then the resulting mixture was centrifuged and analyzed by HPLC to measure the solubility. Solvents used for solubility test were MC, methanol, EtOH, hexane, diethyl ether, isopropyl alcohol, acetone and DW.

[2] = Dissolution characteristics of HM30181A in mixed solvents of MC, EtOH and DW; type: physicochemical
[3] = Composition 1: HM30181A 15 mg, methylene chloride 450 mg, ethanol 50 mg, distilled water 0 mg
[4] = Composition 2: HM30181A 15 mg, methylene chloride 350 mg, ethanol 150 mg, distilled water 0 mg
[5] = Composition 3: HM30181A 15 mg, methylene chloride 250 mg, ethanol 250 mg, distilled water 0 mg
[6] = Composition 5: HM30181A 15 mg, methylene chloride 350 mg, ethanol 150 mg, distilled water 25 mg

## COc1cc2c(cc1OC)CN(CCc1ccc(-n3nnc(-c4cc(OC)c(OC)cc4NC(=O)c4cc(=O)c5ccccc5o4)n3)cc1)CC2 [HM30181A, chromone-2-carboxylic acid [2-(2-{4-[2-(6,7-dimethoxy-3,4-di-hydro-1H-isoquinolin-2-yl)-ethyl]-phenyl}-2H-tetrazol-5-yl)-4,5-dimethoxyphenyl]amine mesylate]
[1]; solvent: acetone
  Solubility: 9.23 ppm
[1]; solvent: diethyl ether
  Solubility: 0.00 ppm
[1]; solvent: distilled water
  Solubility: 0.00 ppm
[1]; solvent: ethanol
  Solubility: 382.63 ppm
[1]; solvent: hexane
  Solubility: 0.05 ppm
[1]; solvent: isopropyl alcohol
  Solubility: 31.29 ppm
[1]; solvent: methanol
  Solubility: 10177.50 ppm
[1]; solvent: methylene chloride
  Solubility: 6848.28 ppm
[2]; [3]
  Solubility: 10,260 ppm
  Solution appearance: Clouded
[2]; [4]
  Solubility: 20,370 ppm
  Solution appearance: Clouded
[2]; [5]
  Solubility: 4,710 ppm
  Solution appearance: Clouded
[2]; [6]
  Solubility: 27,850 ppm
  Solution appearance: Clear
